What was measured:
5-HT2CR [1] = system: 5-HT2CR; design: method as in Zeng et al., 2018; conditions: rhesus monkeys; ref Zeng et al., 2018; cited from earlier work
5-HT2CR [2] = target: T1, 5-HT2CR (Rattus norvegicus, UniProt P08909); assay: microPET/CT brain imaging in rats; format: in vivo, Sprague–Dawley rats; conditions: for effect of pretreatment with SB-242084 on uptake: 0.1 mg/kg SB-242084 prior to injection; for ratio of uptake in choroid plexus to cerebellum, peak / ratio of uptake in hippocampus to cerebellum, peak: i.v., baseline, from time-activity curves
T1 construct: from tissue; host or cells: brain of living Sprague–Dawley rats (choroid plexus, hippocampus)
T1 sequence (P08909 33-460): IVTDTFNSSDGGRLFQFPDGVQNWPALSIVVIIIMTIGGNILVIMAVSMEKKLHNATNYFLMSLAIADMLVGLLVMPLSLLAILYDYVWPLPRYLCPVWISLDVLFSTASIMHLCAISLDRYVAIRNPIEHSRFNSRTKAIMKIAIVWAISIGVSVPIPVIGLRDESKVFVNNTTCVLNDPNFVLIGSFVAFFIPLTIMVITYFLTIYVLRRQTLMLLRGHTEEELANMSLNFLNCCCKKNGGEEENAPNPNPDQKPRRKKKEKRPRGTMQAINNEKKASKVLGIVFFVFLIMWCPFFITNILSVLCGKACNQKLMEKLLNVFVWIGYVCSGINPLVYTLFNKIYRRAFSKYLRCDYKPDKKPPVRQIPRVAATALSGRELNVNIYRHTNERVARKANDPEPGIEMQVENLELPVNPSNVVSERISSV
Method: [^11C]6 and [^11C]9 were intravenously administered to Sprague–Dawley rats and brain images were acquired with a Siemens Inveon microPET/CT imaging system, respectively (Figure 2).
FIGURE 2 PET analysis of [^11C]6 and [^11C]9 in Sprague–Dawley rats. (A) Summed images of [^11C]6 PET/CT data from 10 to 120 min p.i. at baseline. Orange arrows depict choroid plexus; Blue arrows depict hippocampus. (B) Summed images of [^11C]6 PET/CT data from 10 to 120 min p.i. after pretreatment with 0.1 mg/kg of SB-242084. (C) Mean (n = 3) time-activity curves for brain regions of interest of [^11C]6 at baseline with standard error. (D) Mean (n = 3) time-activity curves for brain regions of interest of [^11C]6 after pretreatment with 0.1 mg/kg of SB-242084 with standard error. (E) Mean (n = 3) time-activity curves for brain regions of interest of [^11C]9 at baseline with standard error. (F) Mean (n = 3) time-activity curves for brain regions of interest of [^11C]9 after pretreatment with 0.1 mg/kg of SB-242084 with standard error.

5-HT2CR [3] = assay: microPET brain imaging in rhesus monkeys; format: in vivo; conditions: rhesus monkey; for effect of pretreatment with SB-242084 on uptake in choroid plexus and hippocampus: target 0.1 mg/kg SB-242084 30 min prior to injection (soluble dose likely much less)
Source text: [^11C]6 and [^11C]9 were further evaluated in rhesus monkeys using a Siemens MicroPET Focus 220 scanner (Figure 3). […] Ratios of uptake in choroid plexus, hippocampus, amygdala, frontal cortex to that in cerebellum peaked at 2.7, 1.6, 1.3, and 1.1, respectively.
FIGURE 3 PET-MRI analysis of [^11C]6 and [^11C]9 in rhesus monkey. (A) MicroPET images of [^11C]6 (left) and corresponding fused PET/MRI images summed over all time at baseline. (B) MicroPET images [^11C]6 (left) and corresponding fused PET/MRI images summed over all time after pretreatment with 0.1 mg/kg of SB-242084. (C) Time-activity curves of [^11C]6 for brain regions of interest at baseline study. (D) Time-activity curves of [^11C]6 for brain regions after pretreatment with SB-242084. (E) Time-activity curves of [^11C]9 for brain regions of interest at baseline study. (F) Time-activity curves of [^11C]9 for brain regions after pretreatment with SB-242084.
(§1) To test specific binding of [^11C]6 and [^11C]9 to the choroid plexus and hippocampus, an in vivo microPET blocking study was performed with 0.1 mg/kg SB-242084 30 min prior to injection, respectively. Unfortunately, due to the unexpected low solubility of SB-242084 in the injection form (10% ethanol in saline), the administered SB-242084 in soluble form to the monkeys was likely much less than the target 0.1 mg/kg. As a result, the uptake of [^11C]6 and [^11C]9 in the choroid plexus and hippocampus was still present.

[4] = lipophilicity, octanol/phosphate buffer partition; format: physicochemical; conditions: pH 7.4, read-out: log P7.4
Method: [^11C]6 and [^11C]9 were prepared via O-methylation of 10 and 11 with [^11C]CH3I in the presence of 0.1 M Bu4NOH in DMF followed by HPLC purification, respectively. [^11C]6 and [^11C]9 were obtained in an average radiochemical yield of 37–44 ± 4% (n = 10, decay corrected) with ≥97% radiochemical and chemical purity. The total synthesis time was 50 ± 5 min end of bombardment and the specific activity were in the range of 0.5–1.2 Ci/μmol at time of injection. The lipophilicities of 6 and 9 (octanol/phosphate buffer partition) were measured. The log P7.4 values of [^11C]6 and [^11C]9 are 2.81 and 2.89, respectively, which are in the optimal range (1.0–3.0) for compounds expected to enter the brain readily.

[5] = solubility in the injection form; format: physicochemical; conditions: 10% ethanol in saline
Method: as §1

5-HT2CR [6] = conditions: no reference given; cited from earlier work
5-HT2B = 5-HT2B (Homo sapiens, UniProt P41595); assay: competition binding assay (NIMH PDSP), 5-HT2B; conditions: mean of three experiments ± SD, read-out: Binding affinity Ki, 5-HT2B
D1-D5 = assay: competition binding assay (NIMH PDSP), dopamine D1-D5; conditions: read-out: Binding affinity Ki, D1-D5
5-HT2A [7] = target: T2, 5-HT2A (Homo sapiens, UniProt P28223); assay: competition binding assay (NIMH PDSP), 5-HT2A; conditions: read-out: Binding affinity Ki, 5-HT2A
5-HT2A [8] = target: T2, 5-HT2A; assay: primary binding, 5-HT2A
Source text: (§2) We selected 6 and 9 for carbon-11 radiolabelling and PET imaging studies.

5-HT2C = target: T3, 5-HT2C (Homo sapiens, UniProt P28335); assay: 5-HT2C competition binding assay with [^3H]mesulergine (NIMH PDSP)
T3 sequence (P28335 33-458): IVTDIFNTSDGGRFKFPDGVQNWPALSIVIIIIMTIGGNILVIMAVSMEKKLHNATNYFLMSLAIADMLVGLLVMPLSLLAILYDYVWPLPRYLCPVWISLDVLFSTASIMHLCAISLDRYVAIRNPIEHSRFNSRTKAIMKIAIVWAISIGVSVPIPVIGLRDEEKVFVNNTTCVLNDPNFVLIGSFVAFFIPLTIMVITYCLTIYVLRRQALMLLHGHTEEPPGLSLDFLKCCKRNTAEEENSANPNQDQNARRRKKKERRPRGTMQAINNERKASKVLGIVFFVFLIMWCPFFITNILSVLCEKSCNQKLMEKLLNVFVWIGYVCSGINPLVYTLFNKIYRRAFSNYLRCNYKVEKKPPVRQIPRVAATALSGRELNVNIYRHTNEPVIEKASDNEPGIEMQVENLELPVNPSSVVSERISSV
Source text: as §2

5-HT5–7 = assay: competition binding assay (NIMH PDSP), 5-HT5–7; conditions: read-out: Binding affinity Ki, 5-HT5–7
5-HT1A = target: T4, 5-HT1A (Homo sapiens, UniProt P08908); assay: competition binding assay (NIMH PDSP), 5-HT1A; conditions: read-out: Binding affinity Ki, 5-HT1A
T4 sequence (P08908 1-422): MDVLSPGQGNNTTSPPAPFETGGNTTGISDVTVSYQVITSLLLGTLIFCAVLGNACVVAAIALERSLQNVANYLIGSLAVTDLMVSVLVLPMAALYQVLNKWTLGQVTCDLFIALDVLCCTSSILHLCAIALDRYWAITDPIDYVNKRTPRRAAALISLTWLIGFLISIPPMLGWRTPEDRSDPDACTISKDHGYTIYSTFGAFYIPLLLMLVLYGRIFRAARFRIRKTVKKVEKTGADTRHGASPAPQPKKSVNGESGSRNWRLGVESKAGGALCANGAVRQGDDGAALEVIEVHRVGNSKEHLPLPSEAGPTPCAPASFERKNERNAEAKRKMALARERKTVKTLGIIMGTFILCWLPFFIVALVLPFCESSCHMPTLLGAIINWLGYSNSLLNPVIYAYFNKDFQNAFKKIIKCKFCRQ

[9] = design: method as in Hamprecht et al., 2007; conditions: ref Hamprecht et al., 2007; cited from earlier work

T2 sequence (P28223 whole entry, species assumed): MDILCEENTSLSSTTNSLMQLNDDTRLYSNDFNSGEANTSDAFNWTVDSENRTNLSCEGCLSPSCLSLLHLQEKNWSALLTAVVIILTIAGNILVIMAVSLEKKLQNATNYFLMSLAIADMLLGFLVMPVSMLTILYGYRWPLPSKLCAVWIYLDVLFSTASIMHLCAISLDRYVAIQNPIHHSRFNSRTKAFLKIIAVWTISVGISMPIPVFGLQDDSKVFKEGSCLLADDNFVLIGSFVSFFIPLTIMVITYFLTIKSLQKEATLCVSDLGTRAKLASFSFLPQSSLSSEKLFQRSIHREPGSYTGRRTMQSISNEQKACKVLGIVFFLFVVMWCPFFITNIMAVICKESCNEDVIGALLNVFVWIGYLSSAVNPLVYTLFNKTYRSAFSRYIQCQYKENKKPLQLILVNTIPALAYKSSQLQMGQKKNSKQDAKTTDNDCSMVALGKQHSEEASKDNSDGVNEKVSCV
5-HT2B, sequence (P41595 whole entry, species assumed): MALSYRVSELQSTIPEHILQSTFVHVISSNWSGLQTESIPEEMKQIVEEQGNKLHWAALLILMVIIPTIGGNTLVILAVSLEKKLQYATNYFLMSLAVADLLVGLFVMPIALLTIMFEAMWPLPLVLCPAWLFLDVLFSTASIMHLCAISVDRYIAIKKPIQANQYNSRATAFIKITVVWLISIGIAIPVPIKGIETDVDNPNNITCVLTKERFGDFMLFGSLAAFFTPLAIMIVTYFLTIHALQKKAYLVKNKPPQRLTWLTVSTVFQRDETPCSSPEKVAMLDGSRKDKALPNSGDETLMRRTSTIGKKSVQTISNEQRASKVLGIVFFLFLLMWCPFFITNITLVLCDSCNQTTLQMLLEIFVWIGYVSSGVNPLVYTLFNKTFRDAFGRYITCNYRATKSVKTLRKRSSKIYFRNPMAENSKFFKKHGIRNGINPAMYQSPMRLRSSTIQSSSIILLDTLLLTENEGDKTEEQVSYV

Row | SMILES | effect of pretreatment with SB-242084 on uptake (5-HT2CR [2]) | ratio of uptake in choroid plexus to cerebellum, peak (5-HT2CR [2]) | ratio of uptake in hippocampus to cerebellum, peak (5-HT2CR [2]) | blood-brain barrier penetration (5-HT2CR [3]) | SUV in choroid plexus (peak uptake) (5-HT2CR [3]; baseline) | SUV in hippocampus (5-HT2CR [3]; baseline) | ratio of uptake in choroid plexus to cerebellum, peak (5-HT2CR [3]; baseline) | ratio of uptake in hippocampus to cerebellum, peak (5-HT2CR [3]; baseline) | effect of pretreatment with SB-242084 on uptake in choroid plexus and hippocampus (5-HT2CR [3]) | logD [4] | also measured
1 | Cc1ccc2c(C(=O)Nc3ccc(Oc4cccnc4C)nc3)c[nH]c2c1 [[^11C]5, 6-methyl-N-[6-[(2-methyl-3-pyridinyl)oxy]-3-pyridinyl]1H-indole-3-carboxamide] | – | – | – | – | – | – | – | – | – | – | level of specific binding in the choroid plexus (5-HT2CR [1]): high; overall brain uptake and retention (5-HT2CR [1]): low
2 | CC1CCN(CCOc2cc(N3Cc4cccc(Cl)c4C3=O)ccc2O[11CH3])CC1 [[^11C]6, [^11C]7-Chloro-2-[4-methoxy-3-[2-(4-methylpiperidin-1-yl)ethoxy]phenyl]isoindolin-1-one] | reduction of radioactivity uptake in choroid plexus and hippocampus to the same level as of the cerebellum | 1.8 | 1.2 | excellent | 5.6 | 4.6 | 2.7 | 1.6 | a reduction in the uptake and faster washout | 2.81 | ratio of uptake in amygdala to cerebellum, peak (5-HT2CR [3]; baseline): 1.3; ratio of uptake in frontal cortex to cerebellum, peak (5-HT2CR [3]; baseline): 1.1; time of peak radioactivity uptake in choroid plexus (5-HT2CR [3]; baseline, after injection): 20 to 30 min; time of peak uptakes in hippocampus, amygdala, frontal cortex and cerebellum (5-HT2CR [3]; baseline, postinjection): 9.5 to 18.5 min
3 | CC1CCN(CCOc2cc(N3Cc4cccc(I)c4C3=O)ccc2O[11CH3])CC1 [[^11C]9, [^11C]7-iodo-2-[4-methoxy-3-[2-(4-methylpiperidin-1-yl)ethoxy]phenyl]isoindolin-1-one] | reduction of radioactivity uptake in choroid plexus and hippocampus to the same level as of the cerebellum | 1.9 | 1.3 | excellent | 2.01 | 1.46 | 3.7 | 2.7 | a reduction in the uptake and faster washout | 2.89 | time of peak uptake in choroid plexus and hippocampus (5-HT2CR [3]; baseline, after injection): 25 to 55 min
4 | Cc1cc2c(cc1Cl)N(C(=O)Nc1ccc(Oc3cccnc3C)nc1)CC2 [SB-242084] | – | – | – | – | – | – | – | – | – | – | solubility in the injection form [5]: low; Ki (5-HT2CR [6]): 3.6 nM
5 | COc1ccc(N2Cc3cccc(Br)c3C2=O)cc1OCCN1CCC(C)CC1 [Compound 7] | – | – | – | – | – | – | – | – | – | – | Ki (5-HT2B): 177 ± 75 nM; Ki (D1-D5): > 1000 nM; Ki (5-HT2A [7]): > 1000 nM; primary bindings at 5-HT2A (5-HT2A [8]): < 50%; Ki (5-HT2C; competition with [^3H]mesulergine, mean of three experiments ± SD, read-out: Binding affinity Ki, 5-HT2C): 2.9 ± 0.7 nM; 5-HT2C binding less than that for 9 (5-HT2C; relative to compound 9): 2–3 times; Ki (5-HT5–7): > 1000 nM; Ki (5-HT1A): > 1000 nM; brain permeability as measured by brain to blood plasma ratio [9]: great
